From patent publication US5350743A, “Bisphosphonic acid derivatives, as bone resorption inhibitors” (Kaken Pharmaceutical Co., Ltd., priority 1991, dated 1994)

Experiments:
[1] = tested on: bone resorption activities by PTH; assay type: in vivo, rat (Wister male); details: sc, 10 mg/kg; for Serum calcium value, 1 day value (b) / Serum increased calcium value [(b)-(a)]: 24 h
From the text: Now, the test method with respect to the antihypercalcemic activities of the compounds of the present invention by using rats having the thyroid gland and the pala thyroid gland removed, and the results will be described.
Wister male rats of 7 weeks old (150-170 g) were anesthetized with nenbutal, and the thyroid gland and the pala thyroid gland were surgically removed by the method disclosed by Russel R. G. et al, Calcif. Tissue, Res., 183-196 (1970) and by Muehlbauer R. C. et al, Mineral Electrolyte Metab., 5 296-300 (1981). After the operation, the rats were fed on normal food for three days, and on the fourth day, the blood was sampled, and the serum calcium value was measured by an atomic absorption method, whereby rats having the serum calcium value lowered to a level of from 5 to 7 mg/de were selected.
These rats were divided into groups so that each group consisted of five rats. A compound of the present invention was dissolved in a 0.5% CMC aqueous solution or physiological saline and adjusted for administration at a dose of 10 mg/kg. Such a solution was subcutaneously administered at a dose of 2 ml/kg once a day for three days. To a control group, a 0.5% CMC aqueous solution or physiological saline was administered. Next day, 0.2 ml of the blood was sampled, and the serum calcium value was measured in the same manner as described above (this value was designated as 0 day value (a)).
At the same time, an osmotic pump (2001 Model, manufactured by Alza Co.) having parathyroid hormone (PTH) (50 μg/0.2 ml physiological saline) sealed in, was subcutaneously embedded on the back of each rat, and 24 hours later, the blood was sampled from the aorta abdominalis, whereupon the serum calcium value was measured (this value was designated as one day value (b)).
From the obtained results, the serum increased calcium value was calculated by the following formula: [formula]

[2] = toxicity, LD50, subcutaneous injection to mice; details: mouse, in vivo, sc, ddy mice male five weeks old (22-27 g)
Protocol: LD50 of the compounds of Examples 2, 14, 16, 18, 33, 34 and 58 was at least 100 mg/kg when subcutaneously injected to ddy mice (male) of five weeks old (22-27 g).

SMILES	Serum calcium value, 0 day value (a) [1]	Serum calcium value, 1 day value (b) [1]	Serum increased calcium value [(b)-(a)] [1]	LD50 [2]
NCCC(O)(P(=O)(O)O)P(=O)(O)O [APD, reference compound]	60.2 ± 8.32 µg/mL	83.6 ± 3.13 µg/mL	23.4 ± 6.50 µg/mL	
O=P(O)(O)C(N1CCC2(CCCCC2)CC1)P(=O)(O)O [Example 2, 3-azaspiro[5.5]undecan-3-yl-methylene bisphosphonic acid]	47.2 ± 2.22 µg/mL	109.0 ± 8.47 µg/mL	61.8 ± 7.38 µg/mL	≥ 100 mg/kg
O=P(O)(O)C(N1CCC2(CC1)CC2(F)F)P(=O)(O)O [Example 4, 1,1-difluoro-6-azaspiro[2.5]octan-6-yl-methylene bisphosphonic acid]	51.4 ± 7.23 µg/mL	128.7 ± 3.31 µg/mL	77.3 ± 6.37 µg/mL	
O=P(O)(O)C(N1CCC2(CCCC2)CC1)P(=O)(O)O [Example 6, 8-azaspiro[4.5]decan-8-yl-methylene bisphosphonic acid]	40.3 ± 3.61 µg/mL	90.6 ± 5.30 µg/mL	50.3 ± 6.25 µg/mL	
O=P(O)(O)C(N1CCCC12CCCCC2)P(=O)(O)O [Example 8, 1-azaspiro[4.5]decan-1-yl-methylene bisphosphonic acid]	47.1 ± 4.17 µg/mL	109.8 ± 2.07 µg/mL	62.7 ± 4.27 µg/mL	
O=P(O)(O)C(N1CCCCC12CCCCC2)P(=O)(O)O [Example 10, 1-azaspiro[5.5]undecan-1-yl-methylene bisphosphonic acid]	45.5 ± 5.54 µg/mL	108.8 ± 6.80 µg/mL	63.3 ± 1.91 µg/mL	
O=P(O)(O)C(N1CCCC2(CCCCC2)C1)P(=O)(O)O [Example 12, 2-azaspiro[5.5]undecan-2-yl-methylene bisphosphonic acid]	53.9 ± 7.82 µg/mL	138.9 ± 4.29 µg/mL	85.0 ± 6.27 µg/mL	
C=C1CCN(C(P(=O)(O)O)P(=O)(O)O)CC1 [Example 14, 4-methylidenepiperidinomethylene bisphosphonic acid]	60.99 ± 2.67 µg/mL	68.34 ± 2.94 µg/mL	7.35 ± 2.65 µg/mL	≥ 100 mg/kg
CCCCCC=C1CCN(C(P(=O)(O)O)P(=O)(O)O)CC1 [Example 16, 4-hexylidenepiperidinomethylene bisphosphonic acid]	52.12 ± 1.86 µg/mL	53.30 ± 4.89 µg/mL	1.18 ± 3.70 µg/mL	≥ 100 mg/kg
CC=C1CCN(C(P(=O)(O)O)P(=O)(O)O)CC1 [Example 18, 4-ethylidenepiperidinomethylene bisphosphonic acid]	61.34 ± 7.49 µg/mL	66.05 ± 6.68 µg/mL	4.72 ± 4.05 µg/mL	≥ 100 mg/kg
CCC=C1CCN(C(P(=O)(O)O)P(=O)(O)O)CC1 [Example 20]	63.02 ± 3.75 µg/mL	71.73 ± 6.32 µg/mL	8.71 ± 2.72 µg/mL	
CCCC=C1CCN(C(P(=O)(OCC)OCC)P(=O)(OCC)OCC)CC1 [Example 21, 4-Butylidenepiperidinomethylene bisphosphonic acid ethyl ester]	60.87 ± 5.61 µg/mL	65.92 ± 7.91 µg/mL	5.05 ± 3.19 µg/mL	
CCOP(=O)(OCC)C(N1CCC(Cc2ccccc2)CC1)P(=O)(OCC)OCC [Example 27, 4-Benzylpiperidinomethylene bisphosphonic acid ethyl ester]	66.2 ± 3.13 µg/mL	79.5 ± 2.77 µg/mL	13.3 ± 1.62 µg/mL	
CCOP(=O)(OCC)C(N1CCC(C(N)=O)(N2CCCCC2)CC1)P(=O)(OCC)OCC [Example 29, 4-Carbamoyl-4-(1-piperidyl)piperidinomethylene bisphosphonic acid ethyl ester]	66.7 ± 5.91 µg/mL	74.8 ± 1.82 µg/mL	8.1 ± 4.35 µg/mL	
CCOP(=O)(OCC)C(N1CCC(F)(F)CC1)P(=O)(OCC)OCC [Example 31, 4,4-Difluoropiperidinomethylene bisphosphonic acid ethyl ester]	65.3 ± 3.15 µg/mL	73.1 ± 3.96 µg/mL	7.8 ± 3.57 µg/mL	
CC1(Cl)CCN(C(P(=O)(O)O)P(=O)(O)O)CC1 [Example 33, 4-Chloro-4-methylpiperidinomethylene bisphosphonic acid]	52.1 ± 1.73 µg/mL	53.3 ± 4.91 µg/mL	1.2 ± 3.77 µg/mL	≥ 100 mg/kg
CC1(O)CCN(C(P(=O)(O)O)P(=O)(O)O)CC1 [Example 34, 4-Hydroxy-4-methylpiperidinomethylene bisphosphonic acid]	61.0 ± 2.82 µg/mL	68.3 ± 2.87 µg/mL	7.4 ± 2.69 µg/mL	≥ 100 mg/kg
CCCCCCC1(O)CCN(C(P(=O)(O)O)P(=O)(O)O)CC1 [Example 35, 4-Hexyl-4-hydroxypiperidinomethylene bisphosphonic acid]	70.8 ± 3.85 µg/mL	84.5 ± 6.73 µg/mL	13.7 ± 4.13 µg/mL	
CCOP(=O)(OCC)C(N1CCC(C)(F)CC1)P(=O)(OCC)OCC [Example 37, 4-Fluoro-4-methylpiperidinomethylene bisphosphonic acid ethyl ester]	53.8 ± 2.10 µg/mL	55.7 ± 3.63 µg/mL	1.9 ± 3.10 µg/mL	
CC(C)(C)C1(O)CCN(C(P(=O)(O)O)P(=O)(O)O)CC1 [Example 54, 4-t-Butyl-4-hydroxypiperidinomethylene bisphosphonic acid]	67.3 ± 2.83 µg/mL	77.0 ± 3.74 µg/mL	9.7 ± 5.32 µg/mL	
CC1(C)CCCN(C(P(=O)(O)O)P(=O)(O)O)C1 [Example 58, 3,3-dimethylpiperidinomethylene bisphosphonic acid]	50.8 ± 2.35 µg/mL	130.4 ± 7.57 µg/mL	79.6 ± 7.07 µg/mL	≥ 100 mg/kg
CC1(C)CCN(C(P(=O)(O)O)P(=O)(O)O)CC1 [Example 60, 4,4-dimethylpiperidinomethylene bisphosphonic acid]	46.5 ± 8.69 µg/mL	110.4 ± 1.59 µg/mL	63.9 ± 2.15 µg/mL	
